Series [1] has as its system HCMV. The experiment in a line: Reversibility of HCMV inhibition, real-time PCR in supernatants. The class given is cell-based, Human Cytomegalovirus (HCMV). Particulars: treated 1, 2 or 3 days, then fresh media; HCMV DNA in supernatants at day 6 post infection. The text has this:
FIG. 4: Effects of monensin, nigericin, salinomycin and GCV on replication characteristics. A. Reversibility of HCMV replication: Compounds were present in HCMV-infected HFFs at the indicated intervals in days. Virus DNA was quantified by real-time PCR in supernatants at 6 days post infection. Data represent mean values (±SD) of triplicate determinations from two independent experiments. B. Inhibition of DNA replication, pp28 expression and virus DNA yield: DNA replication was quantified by real-time PCR in cells collected 48 hpi. Pp28-luciferase activity was measured in cell lysates collected at 72 hpi. Virus DNA yield was measured by real-time PCR in supernatants of infected cells collected at 96 hpi. The concentration of compounds was: 0.1 μM for monensin and nigericin, 1 μM for salinomycin and 10 μM for GCV. Data represent mean values (±SD) of triplicate determinations from two independent experiments.
The quantitative CMV real-time PCR assay is based on detection of a 151 bp region from the highly conserved US17 gene (16). The limit of detection of the assay is 100 copies/mL (3.0 copies/reaction), and the measurable range is 2.4-8.0 log10 copies/mL. The PCR was performed using a total reaction volume of 50 μL, including TaqMan 2× Universal PCR Master Mix (Applied Biosystems, Foster City, Calif.), primers (300 nM final concentration), FAM-labeled probe (200 nM final concentration), dH2O, and template (10 μl). Amplification was performed on a 7500 Real-Time PCR System (Applied Biosystems, Foster City, Calif.). PCR conditions were: 50° C. for 2 min, 95° C. for 10 min, 40 cycles of 95° C. for 15 s and 60° C. for 60 s. Quantification standards were prepared by cloning the US17 amplicon in the pCR®2.1-TOPO® plasmid vector (Invitrogen, Carlsbad, Calif.). Serial 10-fold dilutions of plasmid from 7.0 to 1.0 log10 copies/reaction were included with each assay and used to establish a standard curve. The slope and R^2 of the standard curve were −3.3±0.1 and >0.990, respectively. Assay controls included quantified CMV AD 169 DNA (Advanced Biotechnologies Inc.) and quantified Towne CMV at 3.0 and 5.0 log10 copies/mL. Quantitative CMV data were expressed as viral DNA copies per milliliter. The real-time PCR was used for quantification of HCMV replication in cell lysates at 48 hpi, virus DNA yield in supernatants at 96 hpi and for a reversibility assay (14, 16).
To test whether HCMV inhibition by monensin, nigericin and salinomycin was reversible, infected HFFs were treated for 1, 2, or 3 days followed by removal of the media containing the compounds, and adding fresh media until 6 days post infection. HCMV DNA was quantified in supernatants of infected cells at day 6 post infection by real-time PCR.
In general terms: Real-time PCR tracks product formation cycle by cycle.

Series [2] is described as follows: in vitro. Particulars: human.
Description: Cell viability was determined using a colorimetric MTT cell proliferation assay following manufacturer's instructions (Sigma-Aldrich, St. Louis, Mo.). HFFs were treated with varying concentrations of monensin, nigericin, and salinomycin and incubated at 37° C. for 3 days. After the addition of 20 μl/well of MTT (3-(4,5-Dimethyl-2-thiazolyl)-2,5-diphenyl-2H-tetrazolim bromide) (5 mg/ml in PBS), and shaking at 150 rpm for 5 minutes the plates were incubated at 37° C. for 3 hours. Conversion of yellow solution into dark blue formazan by mitochondrial dehydrogenases of living cells was quantified by measuring absorbance at 570 nm. Viable cells in culture medium containing vehicle alone (0.1% DMSO) were referred to as 100% cell viability. For each cell type used for virus infection and drug treatment, the MTT assay was performed at the same time points as the antiviral assay.
Series [3] has as its system luciferase HSV1-KOS/Dlux/oriS. The experiment in a line: HSV1-KOS/Dlux/oriS yield reduction assay in HFFs. Format: cell-based. Conditions: Human alphaherpesvirus 1, 16 h, read-out: HSV1 EC50 (μM) Yield Reduction (HFFs).
For series [4], the system named is HSV2 clinical isolates. The experiment in a line: HSV2 plaque assay in Vero cells. Format: cell-based. Conditions: Human alphaherpesvirus 2, 48 h; Vero cells, 200 PFU/well, plaques counted after 2 days; read-out: HSV2 EC50 (μM) Plaque Number (Vero).
Series [5] relates to HSV1 clinical isolates. Nature of the series: HSV1 plaque assay in Vero cells. The class given is cell-based. Particulars: Human alphaherpesvirus 1, 48 h; Vero cells, 200 PFU/well, plaques counted after 2 days; read-out: HSV1 EC50 (μM) Plaque Number (Vero).
The subject of series [6] is HCMV. The experiment in a line: HCMV yield reduction (infectious virus released into medium, plaques). Format: cell-based, Human Cytomegalovirus (HCMV). Conditions: infected HFFs treated at 0.1 μM.
In series [7] the test system is HCMV proteins (IE1, IE2, UL44, pp65). Nature of the series: Western blot of HCMV proteins in infected HFFs. Format: cell-based, Human Cytomegalovirus (HCMV). The method, then:
FIG. 5: Effect of Nigericin and GCV on expression of HCMV and Wnt/β-catenin signaling proteins. A. Expression of HCMV proteins in infected HFFs treated with nigericin (100 nM) and GCV (10 μM). Compounds were added after virus adsorption and cell lysates were collected for western blot at 24, 48 and 72 hpi. Control-no treatment. B. Expression of Wnt-signaling proteins was determined in non-infected (Mock), and HCMV-infected HFFs treated with nigericin (100 nM) and GCV (10 μM) at indicated time points. Representative data from three independent experiments are shown.
Cell lysates were quantified for protein content using bicinchoninic acid (BCA) protein assay kit (Pierce Chemical, Rockford, Ill.). Equivalent amount of proteins were mixed with an equal volume of 2× sample buffer (125 mM Tris-HCL, pH 6.8, 4% SDS, 20% glycerol and 5% β-mercaptoethanol) and boiled at 100° C. for 10 min (except for Wnt and pWnt detection for which samples were not boiled). Denatured proteins were resolved in Tris-glycine polyacrylamide gels (10-12%) and transferred to polyvinylidine difluoride (PVDF) membranes (Bio-Rad Laboratories, Hercules, Calif.) by electroblotting. Membranes were incubated in blocking solution [5% non-fat dry milk and 0.1% Tween-20 in PBS (PBST)] for 1 hr, washed three times with PBST, and incubated with appropriately diluted primary antibodies at 4° C. overnight. Membranes were washed with PBST and incubated with horseradish peroxidase-conjugated secondary antibodies in PBST for 1 hr at room temperature. Following washing with PBST, protein bands were visualized by chemiluminescence using SuperSignal West Dura and Pico reagents (Pierce Chemical, Rockford, Ill.). The following antibodies were used for detection of CMV proteins: mouse anti-IE1 and IE2, (MAb810); mouse anti-beta-actin antibody (Millipore, Billerica, Mass.); mouse anti-UL44 (Santa Cruz biotechnology Santa Cruz, Calif.); mouse anti-pp65 (Vector laboratories, Burlingame, Calif.); horseradish peroxidase (HRP)-conjugated anti-rabbit IgG (Cell Signaling Technology, Beverly, Mass.); and HRP-conjugated anti-mouse IgG, (GE Healthcare, Waukesha, Wis.). The following antibodies were used for detection of proteins in the Wnt pathway: anti-Wnt5a/b, Wnt, phospho-Wnt, Dvl2, Dvl3 and axin1 (Cell Signaling), β-catenin (E-5) (Santa Cruz biotechnology).
A general note: In western blotting, separated proteins are transferred to a membrane and probed.

A word on the EC50: it is the concentration needed to bring the measured effect to its halfway point. For the compound `CO[C@@H]1C[C@@H](C[C@H]2CC[C@H](C)[C@H]([C@@H](C)C(=O)O)O2)O[C@]2(O[C@](C)([C@H]3CC[C@@](C)([C@@H]4O[C@@H]([C@H]5O[C@@](O)(CO)[C@H](C)C[C@@H]5C)C[C@@H]4C)O3)C[C@H]2C)[C@@H]1C` [Nigericin, nigericin], in series [1], the “reversibility of HCMV inhibition” value is reported as “weak irreversible inhibition”. Moreover, the CC50 at 3 days in series [2] is 3350 ± 770 nM. Moreover, the EC50 in series [3] was determined as 0.08 µM; in series [4], 0.16 ± 0.05 µM; in series [5], 0.63 µM. In addition, the “infectious virus released into the medium (yield reduction), plaques” value in series [6] is given as “complete absence of plaques”. The “expression of the late HCMV gene pp65” value in series [7] (100 nM) is recorded as “significant inhibition”. The IE1 expression result in series [7] (100 nM, 24, 48 and 72 hpi) was “no obvious inhibition”. Moreover, the IE2 expression result in series [7] (100 nM, 24, 48 and 72 hpi) is “major inhibition”. Also, in series [7] (100 nM, 24, 48 and 72 hpi), the UL44 expression entry was “major inhibition”.

For the origin of these results see patent US9549914B2, “Treatment of human cytomegalovirus by modulating Wnt” (priority 2014, dated 2017).
